In patent US20240335364A1, “COMPOSITIONS OF DICAFFEOYLQUINIC ACIDS WITH TOCOPHEROL” (SYMRISE AG, priority 2021, published 2024):

Legend:
Format in all cases: cell-based, human
Settings in all cases: nHEK, 24 h
[1] = test system: OCLN; assay: Modulation of OCLN gene expression of keratinocytes (real-time qPCR, RQ); design: key: RQ: expression relative to DMSO vehicle control (qPCR)
Method: (§1) Neonatal human epidermal keratinocytes (nHEK) were cultivated in an EpiLife® medium (Gibco) including an HKGS kit (Gibco) with 5% CO2 at 37° C. in accordance with the supplier's instructions. The cells were treated for 24 hours, with 0.0005% of the different dicaffeoylquinic acids from above dissolved in DMSO and DMSO alone as the vehicle control. Genomic target expression levels in treated cells were measured using a quantitative Real-Time PCR comparison to vehicle control treatment.
(§2) RNA was isolated using Qiagen's RNeasy® Mini Kit. The total RNA concentrations were measured using Eppendorf's μCuvetteG 1.0 and BioPhotometer, by measuring the absorption at 260 nm. Purity control values such as E260/280 and E260/230 were calculated simultaneously. Reverse transcription was performed using the high-capacity RNA-to-cDNA kit of Applied Biosystems, in accordance with the supplier's instructions. Samples were treated in Biometra's PCR Thermocycler. For fast real-time qPCR, the cDNA was diluted with RNase-free water, and the TaqMan™ Fast Universal PCR Master Mix of Applied Biosystems was used. Quantitative real time PCR was performed using the StepOnePlus fast real-time PCR instrument by Applied Biosystems. Analysis was conducted using the StepOne software and […] (normalised to endogenous control […] expression). For upregulations, RQ values ≥2.5 are considered to be relevant.
(§3) Neonatal human epidermal keratinocytes (nHEK) were cultivated as described in Example 1 and treated for 24 hours with 0.0007% of the different monocaffeoylquinic acids. Afterwards fast real-time qPCR was performed as described in above using a customised gene array.
(§4) Neonatal human epidermal keratinocytes (nHEK) were cultivated as described in Example 1 and treated for 24 hours with 0.005% of the extract samples. Afterwards fast real-time qPCR was performed as described in above using a customized gene array.
(§5) Neonatal human epidermal keratinocytes (nHEK) were cultivated as described in Example 1 and treated for 24 hours with 4,5-dicaffeoylquinic acid (CAS number 14534-61-3, Phytolab GmbH & Co. KG) and (±)-α-tocopherol (CAS number 10191-41-0, synonym: Synonym: DL-α-Tocopherol, Vitamin E, Sigma-Aldrich, synthetic) alone and in combination. Afterwards fast real-time qPCR was performed as described in above using a customised gene array.
(§6) [formula] • With • A=RQ value by 4,5-dicaffeoylquinic acid at concentration x • B=RQ value by tocopherol at concentration y • C=RQ value by the combination of 4,5-dicaffeoylquinic acid at concentration x/2 and tocopherol at concentration y/2 • D=Factor for 4,5-dicaffeoylquinic acid=>0.5 (due to half concentration tested in the combination) • E=Factor for tocopherol=>0.5 (due to half concentration tested in the combination) • A SI=1 is obtained for additive activity of the two combined components, whereas a SI <1 proves antagonistic activity (observed efficacy is lower than additive) and SI >1 proves synergistic activity (observed efficacy is higher than additive).
(§7) Neonatal human epidermal keratinocytes (nHEK) were cultivated as described above and treated for 24 hours with yarrow extract of example 3 (Achillea millefolium, freeze-dried fresh press juice of flowering aerials, cultivated in Germany) and (±)-α-tocopherol (CAS number 10191-41-0, synonym: Synonym: DL-α-Tocopherol, Vitamin E, Sigma-Aldrich, synthetic) alone and in two combinations. Afterwards fast real-time qPCR was performed as described in above using a customised gene array.

[2] = test system: HSPB8; assay: Modulation of HSPB8 gene expression of keratinocytes (real-time qPCR, RQ); design: key: RQ: expression relative to DMSO vehicle control (qPCR)
Method: as §1, §2, §3, §4, §5, §6, §7

[3] = test system: DEFB1; assay: Modulation of DEFB1 gene expression of keratinocytes (real-time qPCR, RQ); design: key: RQ = expression relative to DMSO vehicle control (qPCR)
Method: as §1, §2, §3, §5, §6, §7
as §7, with “(+)-α-tocopherol” for “(±)-α-tocopherol”, “59-02-9,” for “10191-41-0,”, “D-α-tocopherol,” for “DL-α-Tocopherol,”, “Sigma-Aldrich)” for “Sigma-Aldrich, synthetic)”, “combination.” for “two combinations.”

[4] = test system: CRYAB; assay: Modulation of CRYAB gene expression of keratinocytes (real-time qPCR, RQ); design: key: relative quantity (RQ) vs DMSO vehicle-treated control
Method: as §1, §2, §3, §4, §5, §6
(§8) Neonatal human epidermal keratinocytes (nHEK) were cultivated as described above and treated for 24 hours with 3,5-dicaffeoylquinic acid (CAS number 2450-53-5, Phytolab GmbH & Co. KG) and D-α-tocopherol (CAS number 59-02-9, synonym: (+)-α-tocopherol, Vitamin E, trade name: Copherol® F 1300 C, BTC Europe GmbH) alone and in combination. Afterwards fast real-time qPCR was performed as described in above using a customised gene array.
as §7, with “array. […]” for “array.”

[5] = test system: CLDN1; assay: Modulation of CLDN1 gene expression of keratinocytes (real-time qPCR, RQ)
Method: as §1, §2, §3, §4, §5, §6
(§9) Neonatal human epidermal keratinocytes (nHEK) were cultivated as described in Example 1 and treated for 24 hours with 3,4-dicaffeoylquinic acid (CAS number 57378-72-0, Phytolab GmbH & Co. KG) and (+)-α-tocopherol (CAS number 59-02-9, synonym: Synonym: D-α-tocopherol, Vitamin E, Sigma-Aldrich) alone and in combination. Afterwards fast real-time qPCR was performed as described in above using a customised gene array. For upregulations, RQ values ≥2.5 are considered to be relevant.
as §7

[6] = test system: HSPB2; assay: Modulation of HSPB2 gene expression of keratinocytes (real-time qPCR, RQ); design: key: relative quantity vs DMSO vehicle control (qPCR)
Method: as §1, §2, §3, §5, §6, §7

[7] = test system: DSC1; assay: Modulation of DSC1 gene expression of keratinocytes (real-time qPCR, RQ); design: key: RQ: expression relative to DMSO vehicle control
Method: as §1, §2, §3, §4, §5, §6, §9
as §7, with “array. […]” for “array.”

[8] = test system: DSG1; assay: Modulation of DSG1 gene expression of keratinocytes (real-time qPCR, RQ); design: key: relative quantity vs DMSO vehicle control (qPCR)
Method: as §1, §2, §3, §4, §5, §6, §9
as §8, with “array. […]” for “array.”

O=C(/C=C/c1ccc(O)c(O)c1)O[C@@H]1C[C@](OC(=O)/C=C/c2ccc(O)c(O)c2)(C(=O)O)C[C@@H](O)[C@H]1O [1,5-Dicaffeoylquinic acid, 1,5-dicaffeoylquinic acid]
RQ value OCLN ([1]; 0.0005%, Example 1): 2.2
RQ value HSPB8 ([2]; 0.0005%, Example 1): 2.8
RQ value DEFB1 ([3]; 0.0005%, Example 1): 2.4
RQ value CRYAB ([4]; 0.0005%, Example 1): 7.2
RQ value CLDN1 ([5]; 0.0005%, Example 1): 2.4
RQ value HSPB2 ([6]; 0.0005%, Example 1): 2.4
RQ value DSC1 ([7]; 0.0005%, Example 1): 7.6
RQ value DSG1 ([8]; 0.0005%, Example 1): 5.3

O=C(/C=C/c1ccc(O)c(O)c1)O[C@@H]1[C@H](O)C[C@@](O)(C(=O)O)C[C@H]1OC(=O)/C=C/c1ccc(O)c(O)c1 [3,4-Dicaffeoylquinic acid, 3,4-dicaffeoylquinic acid]
RQ value OCLN ([1]; 0.0005%, Example 1): 4.2
RQ value HSPB8 ([2]; 0.0005%, Example 1): 7.3
RQ value DEFB1 ([3]; 0.0005%, Example 1): 3.5
RQ value CRYAB ([4]; 0.0005%, Example 1): 18.7
RQ value CLDN1 ([5]; 0.0005%, Example 1): 5.1
RQ value CLDN1 ([5]; 0.0006% alone, Example 5): 4.2
RQ value HSPB2 ([6]; 0.0005%, Example 1): 4.9
RQ value DSC1 ([7]; 0.0005%, Example 1): 25.8
RQ value DSC1 ([7]; 0.0006% alone, Example 5): 6.2
RQ value DSG1 ([8]; 0.0005%, Example 1): 14.9
RQ value DSG1 ([8]; 0.0006% alone, Example 5): 2.1

O=C(/C=C/c1ccc(O)c(O)c1)O[C@@H]1CC(O)(C(=O)O)C[C@@H](OC(=O)/C=C/c2ccc(O)c(O)c2)C1O (stereo partly shown) [3,5-Dicaffeoylquinic acid, 3,5-dicaffeoylquinic acid]
RQ value OCLN ([1]; 0.0005%, Example 1): 3.5
RQ value HSPB8 ([2]; 0.0005%, Example 1): 6.2
RQ value DEFB1 ([3]; 0.0005%, Example 1): 3.4
RQ value CRYAB ([4]; 0.0002% alone, Example 6): 2.7
RQ value CRYAB ([4]; 0.0005%, Example 1): 16.5
RQ value CLDN1 ([5]; 0.0005%, Example 1): 4.7
RQ value HSPB2 ([6]; 0.0005%, Example 1): 6.1
RQ value DSC1 ([7]; 0.0005%, Example 1): 20.5
RQ value DSG1 ([8]; 0.0002% alone, Example 6): 2.4
RQ value DSG1 ([8]; 0.0005%, Example 1): 12.2

O=C(/C=C/c1ccc(O)c(O)c1)O[C@@H]1C[C@](O)(C(=O)O)C[C@@H](O)[C@H]1O [3-caffeoyl-quinic acid, 3-Caffeoylquinic acid]
RQ value OCLN ([1]; 0.0007%, Example 2): 1.0
RQ value HSPB8 ([2]; 0.0007%, Example 2): 0.8
RQ value DEFB1 ([3]; 0.0007%, Example 2): 1.1
RQ value CRYAB ([4]; 0.0007%, Example 2): 0.9
RQ value CLDN1 ([5]; 0.0007%, Example 2): 0.8
RQ value HSPB2 ([6]; 0.0007%, Example 2): 0.8
RQ value DSC1 ([7]; 0.0007%, Example 2): 1.0
RQ value DSG1 ([8]; 0.0007%, Example 2): 0.7
